Laboratory results as given in patent EP0863769B1 (priority 1996, dated 1998).
pKd: −log10 of the molar value.

Molecular target: A/England/12/64
Assay type: binding, Influenza Viren
Details: read-out: Affinität der Bindung an Virus, Kaff

## Poly-N-(2-Hydroxyethyl)-acrylamid mit 20% mol. 6SLN [6SLN-PAA]
  pKd: 7.00
